# Reference: patent publication US20110256241A1, “METHODS AND COMPOSITIONS FOR THE TREATMENT OF CANCER” (TRASLATIONAL CANCER DRUGS PHARMA, S.L., priority 2008, published 2011)
# Like-named read-outs stand apart in the source and are kept apart here.
# B1: TRAIL: extracellular domain of human TRAIL (amino acids 95-281) (protein, listed as Homo sapiens)
# chain: TSEETISTVQEKQQNISPLVRERGPQRVAAHITGTRGRSNTLSSPNSKNEKALGRKINSWESSRSGHSFLSNLHLRNGELVIHEKGFYYIYSQTYFRFQEEIKENTKNDKQMVQYIYKYTSYPDPILLMKSARNSCWSKDAEYGLYSIYQGGIFELKENDRIFVSVTNEHLIDMDHEASFFGAFLVG
# Columns and labels:
# H460 cells [1] = test: Cell proliferation assay (MTT); type: cell-based, human
# Protocol: All cell lines used in this study were maintained under standard conditions of temperature (37° C.), humidity (95%), and carbon dioxide (5%). Human primary bronchial epithelial cells, NHBE (BEC) (Cambrex, CC-2541) were grown in BEGM (Bronchial Epithelial cell growth media) BulletKit (Cambrex, CC-3170). Human primary mammary epithelial cells, HMEC (Clonetics, CC-2551) were grown in MEBM medium supplemented with a bullet kit (Clonetics, CC-3150). Epithelial non-small lung cancer cells H460 and H1299, and small cell lung cancer cell lines H510 and H82 were maintained in RPMI supplemented with 10% Fetal Bovine Serum (FBS) (Life Technologies, Grand Island, N.Y.).
# (§1) Cells were seeded on 96-well plates (BD, Falcon, Bioscience, San Jose, Calif., USA) at a density of 6000 cells/well, and incubated for 24 h under standard conditions. Then, cells were treated with different concentrations of the ChoK inhibitors (quadruplicates of each concentration) and maintained for 72 hours. […] Absorbance is read at 595 nm in a VersaMax Microplate Reader (Molecular Devices, Sunnyvale, Calif., USA). For sensitization with acid ceramidase inhibitor, cells were pre-treated […] with the correspondent IC50 for NOE before treatment with ChoK inhibitors. NOE (N-Oleoyl ethanolamine) was obtained from Calbiochem (La Jolla, Calif., USA).
# Thus, disruption in the levels of acid ceramidase may allow ChoK inhibitors to have a better effect in these cells. To verify this hypothesis, we used the previously characterized acid ceramidase inhibitor, N-Oleoylethanolamine (NOE) (Grijalvo S., Chem Phys Lipids. 2006; 144:69-84), to investigate if the inhibition of acid ceramidase sensitizes tumour cell lines to ChoK inhibitors. To that end, H460 cells were pre-treated with NOE for three hours to inhibit acid ceramidase.
# H460 cells were pre-treated with these compounds for three hours to inhibit ceramidases. […] Furthermore, the combined use of ChoK inhibitors and acid ceramidase inhibitors provides a further stronger anticancer activity.
# [2] = system: primary cultures of tumours of patients with NSCLC; test: Primary cultures of NSCLC tumours, crystal violet quantification; type: cell-based, human; details: primary NSCLC tumour cultures, 0-20 μM, 10 days
# Protocol: Resected tissues from NSCLC patients were dissociated (Cell dissociation sieve-tissued grinder Kit CD1, SIGMA), and the obtained cells were seeded in 24 well plates (BD, Falcon, Bioscience, San Jose, Calif., USA). […] The final persistent population in each well was quantified by the method of Cristal Violet as previously described (Rodríguez-González, A. et al., Oncogene, 22:8803-8812). […]
# H460 xenografts = test: NSCLC xenografts, in vivo tumor growth inhibition
# Protocol: Indicated cells were resuspended in DMEM just before inoculation (10^6 cells/0.1 ml), and injected subcutaneously in nu/nu immunosuppressed mice. Mice were kept under standard laboratory conditions according to the guidelines of the Spanish Government. When tumours reached a mean volume of 0.1 cm^3, mice were randomized to control and treated groups. Treatments with the antitumoral agents (and vehicle for control mice) were performed i.p. with following the indicated schedules. Tumors were monitored three times a week by measuring the major (D) and minor (d) diameters, and tumour volume was calculated by V=(D*d^2)/2. Statistical analysis of significant changes in tumour growth was calculated using SPSS software v. 13.0.
# H460 RSM-932AR cells = test: Cell proliferation assay (MTT); type: cell-based, human
# Protocol: (§2) Cell lines resistant to MN58b and RSM-932A (identified as MN58R and RSM-932A-R, respectively) were generated by prolonged continuous exposure to increasing concentrations of each drug. A parallel control (H460 stock) of the cell line in the absence of the compounds was kept in culture for the same time.
# as §1
# (§3) To further study the mechanism underlying resistance to ChoK inhibition, as well as the implication of acid ceramidase in this effect, we used the human NSCLC-derived H460 cell line for a set of in vitro experiments. Maintaining this cell line in culture for 9 months with slightly increasing doses cycles of MN58b and a second-generation ChoKα inhibitor, RSM-932A, we established new cell lines with acquired resistance to these ChoKα inhibitors. A control cell line (H460 stock) was also established maintaining H460 in culture for the same time without treatment. Thus, established cells resistant to MN58b (H460 MN58R) and resistant to RSM-932A (H460 RSM-932A-R) were not affected at concentrations where normal H460 cells or control H460stock cells were dramatically affected. […] Furthermore, we found a strong cross-resistance between both ChoK inhibitors as it could be expected due to the similar mechanisms of action of these two antitumoral drugs (Table 9).
# H460stock cells = test: Cell proliferation assay (MTT); type: cell-based, human
# Protocol: as §2, §1, §3
# H460 MN58R cells = test: Cell proliferation assay (MTT); type: cell-based, human
# Protocol: as §2, §1, §3
# H460 cells [3] = test: Affymetrix gene expression analysis of 5-FU metabolization pathway; type: cell-based, human; set-up: key to RRM2 (Ribonucleotide Reductase) gene expression / TYMS (Thymidylate synthetase) gene expression / DUT (Deoxyuridine triphosphatase) gene expression: Signal Log Ratio, base 2 (1.0 = 2-fold increase, 0 = no change)
# Protocol: The RNAs from the biopsies selected were isolated for microarrays and QT-PCR, using RNeasy Mini Kit (QIAGEN, Hilden, Germany) following the instructions of the manufactures. Samples were prepared and the array hybridized according to the Affymetrix GeneChip Expression Analysis Technical Manual. Hybridization to Affymetrix U133plus2 GeneChips (54,614 probe sets, representing 47,000 transcripts), staining, washing and scanning procedures were carried out at the Genomic Facility in the National Center of Biotechnology (Madrid, Spain) as described in www.affymetrix.com (Affymetrix, Santa Clara, Calif.). The Signal Log Ratio estimates the magnitude and direction of change of a transcript. The log scale used is base 2, thus a Signal Log Ratio of 1.0 indicates an increase of the transcript level by 2 fold and −1.0 indicates a decrease by 2 fold. A Signal Log Ratio of zero would indicate no change.
# With the aim of further investigating the mechanism of ChoKIs sensitization to the antitumoral effect of 5-FU, a gene expression analysis of the 5-FU-metabolisation pathway was performed in H460 cells treated at different times with MN58b and RSM-932A using affymetrix technology.
# SW620 cells = test: MTT cytotoxicity, ChoKI and TRAIL
# Protocol: For this purpose, cells were seeded in 96 multiwell plates at a density of 1×10^4 cells/well 24 hours before treatment. Cells were treated with different concentrations of RSM-932A (ChoKI) or TRAIL for different times and the cell proliferation was quantified using the MTT [3-(4,5-Dimethylthiazol-2-yl)-2,5-Diphenyltetrazolium Bromide] colorimetric assay.
# HT29 colon cancer cells = test: QT-PCR validation of 5-FU metabolization pathway genes; type: cell-based, human; set-up: key: DR (Down-regulation); UR (Up-regulation)
# Protocol: (§4) 1 μg of RNA was used to generate cDNA using High-Capacity cDNA Archive Kit (Applied Biosystems), and quantitative real-time PCR was carried out in triplicate using the ABI PRISM 7700 Sequence Detector (Applied Biosystems). GAPDH and 18S ribosomal mRNA were amplified as internal controls. Probes used for amplification were from Applied Biosystems as Taqman Gene Expression Assays (ASAH1: HS00602774—M1 Taqman Probe, ASAH2: HS00184096_M1 Taqman Probe and ASAH3: HS00370322_M1 Taqman Probe, DUT: HS00798995_S1 Taqman Probe, TYMS: HS00426591_M1 Taqman Probe, UPP1: HS00427695—M1 Taqman Probe, RRM2: HS00357247_G1 Taqman Probe). The 2-^ΔΔCt method was used (Livak K J., Methods. 2001; 25:402-8) to calculate the relative expression of each gene.
# DLD-1 colon cancer cells = test: as above; type: cell-based, human; set-up: key: DR (Down-regulation); UR (Up-regulation)
# Protocol: as §4
# SW62 colon cancer cells = test: as above; type: cell-based, human; set-up: key: DR (Down-regulation); UR (Up-regulation)
# Protocol: as §4
# DLD-1 cells = test: Apoptosis detection by flow cytometry, Annexin V & IP; type: cell-based, human; details: DLD-1, 7 hours treatment
# Protocol: Cell death was analysed by flow cytometry using de Aposcreen Annexin V Apoptosis Kit (Southern Biotech) according to manufacturer procedures. Cells were seeded at 4×10^5 cells per well in six-well. Twenty-four hours later, cells were treated with the indicated compounds. Cells were rinsed twice in cold PBS and after removing it cells were resuspended in cold 1× binding buffer to a concentration from 1×10^6 to 1×10^7 cells/mL. 100 μl of these cells were collected in a flow cytometry tube and 10 μl of Annexin V were added. After gently vortexing, tubes were incubated for 15 minutes on ice, protected from light. Without washing, 380 μl of 1× binding buffer were added to each sample prior to 10 μl of propidium iodine. Cells were immediately analysed by flow cytometry.
# The synergism observed in vitro was also analysed by flow cytometry using Annexin V & IP staining to distinguish between apoptosis and necrosis or late apoptosis. […] When DLD-1 cells are treated with TRAIL alone there is a 35% of apoptosis. In combination tumour cell death is amplified up to 50%. When DLD-1 are treated with RSM-932A (TCD-717) in combination with TRAIL there is a 55% increase in tumour cell death but mainly the necrotic or late apoptosis population because RSM-932A (TCD-717) has an effect that is faster than MN58. […]
# [4] = FIG. 7B, combination given sequentially
molecule,measurement,setting,value
"CCCCCCCCCCCCCC(=O)N[C@H](CO)[C@H](O)c1ccc([N+](=O)[O-])cc1 [CAY, (1R,2R)-N-myristoylamino-4′-nitro-phenylpropandio1-1,3, reference compound]",IC 50,"H460 cells [1]; Homo sapiens, NCI-H460, combinations: pre-treated with ceramidase inhibitor for three hours, then ChoK inhibitor, read-out: IC50 (72 h)",28 µM
"N.N.[Cl][Pt][Cl] [Cisplatin, cisplatin, reference compound]",RESISTANT (% of samples),[2],50%
same,RESISTANT (number of samples),[2],31
same,SENSITIVES (% of samples),[2],50%
same,SENSITIVES (number of samples),[2],31
same,IC 50,H460 cells [1],5 µg/mL
same,"Statistical significance (p), tumour growth","H460 xenografts; FIG. 7A, single agents",0.3
same,"Statistical significance (p), tumour growth",H460 xenografts; [4],0.441
same,IC 50,H460 RSM-932AR cells,1.5 µg/mL
same,IC 50,H460stock cells,4.5 µg/mL
same,IC 50,H460 MN58R cells,2 µg/mL
"CCCCCCCCCCCCCC(=O)N[C@H](C)[C@@H](O)c1ccccc1 [DEM, (1S,2R)-N-myristoylamino-phenylpropanol-1, reference compound]",IC 50,"H460 cells [1]; combinations: pre-treated with ceramidase inhibitor for three hours, then ChoK inhibitor, read-out: IC50 (72 h)",31 µM
"Nc1ccn([C@@H]2O[C@H](CO)[C@@H](O)C2(F)F)c(=O)n1 [Gemcitabine, gemcitabine]",RESISTANT (number of samples),[2],34
same,SENSITIVES (number of samples),[2],18
"CN(c1ccc(Cl)cc1)c1cc[n+](Cc2ccc(-c3ccc(C[n+]4ccc(N(C)c5ccc(Cl)cc5)c5ccccc54)cc3)cc2)c2ccccc12.[Br-].[Br-] [RSM-932A, 1,1′-(biphenyl-4, 4′-diylmethylene) bis[4-(4-chloro-N-methylanilino-)quinolinium]dibromide]",DUT (Deoxyuridine triphosphatase) gene expression,"H460 cells [3]; H460, 9 h",−1.12
same,RRM2 (Ribonucleotide Reductase) gene expression,"H460 cells [3]; H460, 9 h",−1.39
same,TYMS (Thymidylate synthetase) gene expression,"H460 cells [3]; H460, 9 h",−1.03
same,UPP1 (Uridine phosphorylase 1) gene expression,"H460 cells [3]; H460, 9 h",+1.83
same,DUT (Deoxyuridine triphosphatase) gene expression,"H460 cells [3]; H460, 24 h",−2.08
same,RRM2 (Ribonucleotide Reductase) gene expression,"H460 cells [3]; H460, 24 h",−3.69
same,TYMS (Thymidylate synthetase) gene expression,"H460 cells [3]; H460, 24 h",−2.73
same,UPP1 (Uridine phosphorylase 1) gene expression,"H460 cells [3]; H460, 24 h",+2.48
same,"cytotoxicity, percentage of cell death","SW620 cells; SW620, combination: ChoKI pre-treatment 2 hours, then TRAIL 24 h",9%
same,DUT expression,HT29 colon cancer cells,DR
same,RRM expression,HT29 colon cancer cells,DR
same,TYM expression,HT29 colon cancer cells,DR
same,UPP expression,HT29 colon cancer cells,UR
same,DUT expression,DLD-1 colon cancer cells,DR
same,RRM expression,DLD-1 colon cancer cells,DR
same,TYM expression,DLD-1 colon cancer cells,DR
same,UPP expression,DLD-1 colon cancer cells,UR
same,DUT expression,SW62 colon cancer cells,DR
same,RRM expression,SW62 colon cancer cells,DR
same,TYM expression,SW62 colon cancer cells,DR
same,UPP expression,SW62 colon cancer cells,UR
same,"Statistical significance (p), tumour growth",H460 xenografts; [4],0.157
CC(=O)O[C@H]1C(=O)[C@@]2(C)[C@H]([C@H](OC(=O)c3ccccc3)[C@]3(O)C[C@H](OC(=O)[C@H](O)[C@@H](NC(=O)c4ccccc4)c4ccccc4)C(C)=C1C3(C)C)[C@]1(OC(C)=O)CO[C@@H]1C[C@@H]2O [Taxol],RESISTANT (number of samples),[2],35
same,SENSITIVES (number of samples),[2],27
"CCC1=C[C@@H]2CN(C1)Cc1c([nH]c3ccccc13)[C@@](C(=O)OC)(c1cc3c(cc1OC)N(C)[C@H]1[C@@](O)(C(=O)OC)[C@H](OC(C)=O)[C@]4(CC)C=CCN5CC[C@]31[C@@H]54)C2 [Vinolrelbine, vinorelbine]",RESISTANT (number of samples),[2],24
same,SENSITIVES (number of samples),[2],15
B1,sensitivity to TRAIL,"SW620 cells; SW620, FIG. 8B",nearly resistant
same,apoptosis,DLD-1 cells,35%
